# Experimental data reported in patent US20170246236A1, “METHODS AND COMPOSITIONS FOR ENHANCED DELIVERY OF COMPOUNDS” (Sanford Burnham Prebys Medical Discovery Institute, priority 2010, published 2017).
# Residues, ends and D or L forms follow the SMILES beside them.
# Experiments:
# GBM tumors = experiment: In vivo peptide homing; set-up: species or system mouse; details: 200 μg Rd-labeled peptide i.v., 3 hours, 005 tumor mice
# Protocol: In vivo peptide homing. […] Rhodamine-labeled CGKRK (200 μg) was intravenously injected into the mice and allowed to circulate for 3 hours. The mice were perfused with PBS through the heart under anesthesia, and tissues were collected and processed for fluorescence analysis.
# mitochondria in HUVEC = experiment: Live cell imaging, co-localization with mitochondrial marker; type: cell-based, human
# Protocol: (§1) Cell proliferation assay and imaging. The MTT [3-[4,5-dimethylthazol-2-yl]-2,5-diphenyl tetrazolium-bromide] assay (Molecular Probes, Eugene, Oreg.) was used to quantify cell proliferation. Cells were seeded in complete medium into 96-well plates (5×10^3 cells/well), and allowed to attach overnight at 37° C. in a humidified 5% CO2 atmosphere. The culture media was then removed and various concentrations of peptides or NWs were added. After 48, and 72 hours, 10 μL of the MTT reagent (5 mg/mL in PBS) was added to each well. The medium was removed from cells after 3 hours, and […] of DMSO:MEOH (1:1 v/v) were added to each well. The plates were read at a wavelength of 595 nm. For live cell imaging, cells seeded on glass-bottom plates (Willco, Amsterdam, Netherlands), and 24 hours later, the cells were washed and incubated with FAM-labeled peptides or NWs for 45 min at 37° C. The cells were then rinsed three times with PBS and incubated for an additional 15 min at 37° C. with […] MitoTracker Red (Molecular Probes, Eugene, Oreg.) followed by nuclear staining with Hoechst 33342 DNA dyes (Molecular Probe, Eugene, Oreg.) for 12 min. The cells were analyzed with Fluoview FV 500 confocal microscopy (Olympus America, Center Valley, Pa.).
# [1] = tested on: mitochondria in U87 cells; experiment: as above; type: cell-based, human
# Protocol: as §1
# purified mitochondria = experiment: Peptide/phage binding to purified mitochondria; set-up: species or system mouse; details: increasing concentrations of unlabeled peptide
# Protocol: Isolation of mitochondria and peptide/phage binding. Mitochondria were isolated from livers of Balb/c mice using differential centrifugation with buffers from a Pierce mitochondrial isolation kit for tissue according to the manufacture's instruction (Pierce Biotechnology, Rockford, Ill.). To test the binding of the CGKRK peptide to mitochondria, purified mitochondria were pre-incubated with various concentrations of non-labeled CGKRK or control peptide (CREKA; SEQ ID NO:92) for 30 min 4° C. FAM-CGKRK was then added and incubated for an additional 1 hour. The binding of the FAM peptide was quantified by fluorescence. In phage binding assays, purified mitochondria were suspended in 10 ml DMEM supplemented with 1% BSA, and incubated with 5×10^8 plaque-forming units (pfu) of peptide-displaying phage, overnight at 4° C. The mitochondria were washed 3 times with DMEM/BSA, the phage were collected with lysogeny broth containing 1% NP-40, and quantified by plaque assay.
# [2] = tested on: proteins from brain tumor extracts; experiment: CGKRK-binding proteins in glioblastoma tumor extracts (affinity matrix); details: mass spectrometry
# Excerpt: Proteins from brain tumor extracts were bound to insolubilized (SulfoLink Resin; Pierce Biotechnology) CGKRK peptide. Proteins were eluted from the affinity matrix with either CGKRK peptide or with CREKA (SEQ ID NO:92) peptide (negative control). Silver-stained gels were used to show the proteins eluted with CGKRK and CREKA (SEQ ID NO:92). […] The bands in the CGKRK eluate were identified by mass spectrometry as the proteins listed.
Compound,co-localization with mitochondria (mitochondria in HUVEC),co-localization with mitochondria [1],further results
"N=C(N)NCCC[C@H](NC(=O)[C@H](CCCCN)NC(=O)CNC(=O)[C@@H](N)CS)C(=O)N[C@@H](CCCCN)C(=O)O [CGKRK, Cys-Gly-Lys-Arg-Lys] (H-CGKRK-OH)",–,–,"peptide in normal tissues (GBM tumors): not in normal tissues; peptide in normal tissues (GBM tumors; listed as CGKRK peptide): appeared in kidney but not in heart, pancreas, liver, lung, or spleen"
CC(C)C[C@@H](NC(=O)[C@H](N)CCCCN)C(=O)N[C@H](C)C(=O)N[C@H](CCCCN)C(=O)N[C@H](CC(C)C)C(=O)N[C@H](C)C(=O)N[C@H](CCCCN)C(=O)N[C@H](CCCCN)C(=O)N[C@H](CC(C)C)C(=O)N[C@H](C)C(=O)N[C@H](CCCCN)C(=O)N[C@H](CC(C)C)C(=O)N[C@H](C)C(=O)N[C@H](CCCCN)C(=O)N[C@@H](CS)C(=O)NCC(=O)N[C@@H](CCCCN)C(=O)N[C@@H](CCCNC(=N)N)C(=O)N[C@@H](CCCCN)C(=O)O [CGKRK-D[KLAKLAK]2 peptide],colocalized with mitochondria,colocalized with mitochondria,–
"CREKA: Unrelated control peptide, SEQ ID NO:92 (clot binding/homing peptide)",–,–,inhibition of FAM-CGKRK binding to mitochondria by unlabeled peptide (purified mitochondria): not; proteins eluted from CGKRK affinity matrix [2]: failed to elute any visible protein bands
"D[KLAKLAK]2: α-helical amphipathic pro-apoptotic peptide, SEQ ID NO:3 (KLAKLAKKLAKLAK; D-amino acids; membrane perturbing molecule) [reference compound]",did not,did not,–
